From patent publication US6555663B1, “Prodrugs for selective drug delivery” (priority 1986, dated 2003)

What was measured:
[1] = tested on: RSFFV (Raucher Spleen Focus Forming Virus); test: Treatment of C3H mice infected with Raucher Spleen Focus Forming Virus: spleen weight; assay type: in vivo
Method: The effectiveness of MTL J-1 was tested in C3H mice against the virus RSFFV (Raucher Spleen Focus Forming Virus) which is a retrovirus and is a valid animal model for HIV infection by application to the above identified mice according to the following procedure:
(§1) Three groups of two month old C3H mice, each comprising four animals were provided as one control and two test groups, wherein, the three-groups (I-III) were subjected to an infectious dose of RSFFV on day one. The first group (I) served as control and received no treatment. Group II and III were treated with […] total body weight concentration of the drug Foscarnet and the test compound MTL J-1, respectively which was administered each day for days 5 through 9. The animals were sacrificed on day 14, where upon the spleens where removed and weighed.
(§2) The tests were redone with a second control group (IA) having no infection of RSFFV and receiving no treatment with any drug, wherein groups I and IA comprise four mice each, and groups II and III comprise five mice each, providing the results summarized below: […]

[2] = Body weight of treated RSFFV-infected C3H mice (toxicity); assay type: in vivo
Method: as §1, §2

[3] = RSFFV-infected C3H mice, 10 μM total body weight concentration, days 5 through 9
[4] = first test (Table 1), RSFFV on day one, 10 μM total body weight concentration each day for days 5 through 9, sacrificed day 14
[5] = repeat test (Table 2) with a second, uninfected control group IA, same treatment

Substance	Effectiveness, as demonstrated by the absence of splenomegaly [1, 3]	Spleen weight Normalized [1, 4]	Spleen weight Normalized [1, 5] [grams]	Toxicity, as demonstrated by an absence of weight loss [2, 3]	Ending Weight ([2]; mouse, in vivo) [grams]	Weight change ([2]; mouse, in vivo)	Ending Weight [2, 4] [grams]	Weight change [2, 4] [grams]	Ending Weight [2, 5] [grams]	Weight change [2, 5]
5-phosphonoformate-1,5-di-(p-N-2-(N-(4-aminobutyl)-N-ethylisoluminol)-N-ethylaminophenyl)-1,5-bis-(p-N,N-dimethylaniline)-1,3-pentadiene [MTL J-1]	highly effective	.068 grams	0.049	nontoxic	19.2	+1.5 grams				
phosphonoformate [Foscarnet]		.079 grams	0.061				21.2	0.15	19.6	+1.6 grams
